Laboratory results: ChEMBL document CHEMBL4507302, “Data for DCP probe TP-020” (2021)

Legend:
[1] = target: Serine/threonine-protein kinase 10 (Homo sapiens) (UniProt O94804); details: Compound concentration 1000.0 nM
[2] = target: LIM domain kinase 1 (Homo sapiens) (UniProt P53667); details: Compound concentration 1000.0 nM
[3] = target: Calcium/calmodulin-dependent protein kinase type II subunit delta (Homo sapiens) (UniProt Q13557); details: Compound concentration 1000.0 nM
[4] = target: Epithelial discoidin domain-containing receptor 1 (Homo sapiens) (UniProt Q08345); details: Compound concentration 1000.0 nM
[5] = target: 5-hydroxytryptamine receptor 7 (Homo sapiens) (UniProt P34969); details: Compound concentration 10.0 uM
[6] = target: Discoidin domain-containing receptor 2 (Homo sapiens) (UniProt Q16832); details: Compound concentration 1000.0 nM
[7] = target: Mitogen-activated protein kinase 4 (Homo sapiens) (UniProt P31152); details: Compound concentration 1000.0 nM
[8] = target: Glycogen synthase kinase-3 beta (Homo sapiens) (UniProt P49841); details: Compound concentration 1000.0 nM
[9] = target: TGF-beta receptor type-2 (Homo sapiens) (UniProt P37173); details: Compound concentration 1000.0 nM
[10] = target: Cyclin-dependent kinase 14 (Homo sapiens) (UniProt O94921); details: Compound concentration 1000.0 nM
[11] = tested on: Epidermal growth factor receptor (Homo sapiens), P00533 [G719C]; details: Compound concentration 1000.0 nM
[12] = target: Ribosomal protein S6 kinase alpha-6 (Homo sapiens) (UniProt Q9UK32); details: Compound concentration 1000.0 nM
[13] = target: Platelet-derived growth factor receptor beta (Homo sapiens) (UniProt P09619); details: Compound concentration 1000.0 nM
Sequence of Platelet-derived growth factor receptor beta (Homo sapiens) (P09619 whole entry): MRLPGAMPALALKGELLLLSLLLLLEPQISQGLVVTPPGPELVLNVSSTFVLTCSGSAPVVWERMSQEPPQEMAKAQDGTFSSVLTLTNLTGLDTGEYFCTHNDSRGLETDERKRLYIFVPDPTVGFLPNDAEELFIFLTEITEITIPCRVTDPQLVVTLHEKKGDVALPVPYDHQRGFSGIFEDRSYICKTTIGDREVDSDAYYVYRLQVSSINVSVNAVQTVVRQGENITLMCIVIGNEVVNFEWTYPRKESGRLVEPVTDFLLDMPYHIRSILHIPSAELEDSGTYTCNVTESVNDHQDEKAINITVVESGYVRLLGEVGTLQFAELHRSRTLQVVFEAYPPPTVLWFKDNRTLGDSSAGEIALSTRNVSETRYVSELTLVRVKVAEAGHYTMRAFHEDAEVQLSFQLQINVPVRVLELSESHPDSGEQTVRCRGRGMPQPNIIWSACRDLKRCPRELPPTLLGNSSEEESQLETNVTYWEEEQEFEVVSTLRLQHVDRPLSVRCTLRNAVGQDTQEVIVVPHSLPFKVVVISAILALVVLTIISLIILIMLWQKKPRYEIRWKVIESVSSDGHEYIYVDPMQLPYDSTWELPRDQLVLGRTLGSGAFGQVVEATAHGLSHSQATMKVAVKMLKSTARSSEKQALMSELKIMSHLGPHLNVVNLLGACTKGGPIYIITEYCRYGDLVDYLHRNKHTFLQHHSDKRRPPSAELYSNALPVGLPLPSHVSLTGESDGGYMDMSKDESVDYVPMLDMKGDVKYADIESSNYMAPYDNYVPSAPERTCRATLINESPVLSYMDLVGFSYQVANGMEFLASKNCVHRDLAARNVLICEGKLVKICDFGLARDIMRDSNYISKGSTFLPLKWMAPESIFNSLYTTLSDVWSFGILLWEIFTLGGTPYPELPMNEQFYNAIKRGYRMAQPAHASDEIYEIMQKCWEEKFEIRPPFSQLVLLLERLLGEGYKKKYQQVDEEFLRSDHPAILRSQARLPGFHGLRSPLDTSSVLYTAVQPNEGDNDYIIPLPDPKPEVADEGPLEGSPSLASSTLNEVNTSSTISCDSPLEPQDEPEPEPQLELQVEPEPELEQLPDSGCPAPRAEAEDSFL

[14] = target: MAP kinase-activated protein kinase 5 (Homo sapiens) (UniProt Q8IW41); details: Compound concentration 1000.0 nM
[15] = target: Non-receptor tyrosine-protein kinase TNK1 (Homo sapiens) (UniProt Q13470); details: Compound concentration 1000.0 nM
[16] = target: Serine/threonine-protein kinase RIO3 (Homo sapiens) (UniProt O14730); details: Compound concentration 1000.0 nM
[17] = target: Mitogen-activated protein kinase kinase kinase 4 (Homo sapiens) (UniProt Q9Y6R4); details: Compound concentration 1000.0 nM
[18] = target: Epidermal growth factor receptor (Homo sapiens) (UniProt P00533); details: Compound concentration 1000.0 nM
[19] = target: Ephrin type-B receptor 4 (Homo sapiens) (UniProt P54760); details: Compound concentration 1000.0 nM
Sequence of Ephrin type-B receptor 4 (Homo sapiens) (P54760 whole entry): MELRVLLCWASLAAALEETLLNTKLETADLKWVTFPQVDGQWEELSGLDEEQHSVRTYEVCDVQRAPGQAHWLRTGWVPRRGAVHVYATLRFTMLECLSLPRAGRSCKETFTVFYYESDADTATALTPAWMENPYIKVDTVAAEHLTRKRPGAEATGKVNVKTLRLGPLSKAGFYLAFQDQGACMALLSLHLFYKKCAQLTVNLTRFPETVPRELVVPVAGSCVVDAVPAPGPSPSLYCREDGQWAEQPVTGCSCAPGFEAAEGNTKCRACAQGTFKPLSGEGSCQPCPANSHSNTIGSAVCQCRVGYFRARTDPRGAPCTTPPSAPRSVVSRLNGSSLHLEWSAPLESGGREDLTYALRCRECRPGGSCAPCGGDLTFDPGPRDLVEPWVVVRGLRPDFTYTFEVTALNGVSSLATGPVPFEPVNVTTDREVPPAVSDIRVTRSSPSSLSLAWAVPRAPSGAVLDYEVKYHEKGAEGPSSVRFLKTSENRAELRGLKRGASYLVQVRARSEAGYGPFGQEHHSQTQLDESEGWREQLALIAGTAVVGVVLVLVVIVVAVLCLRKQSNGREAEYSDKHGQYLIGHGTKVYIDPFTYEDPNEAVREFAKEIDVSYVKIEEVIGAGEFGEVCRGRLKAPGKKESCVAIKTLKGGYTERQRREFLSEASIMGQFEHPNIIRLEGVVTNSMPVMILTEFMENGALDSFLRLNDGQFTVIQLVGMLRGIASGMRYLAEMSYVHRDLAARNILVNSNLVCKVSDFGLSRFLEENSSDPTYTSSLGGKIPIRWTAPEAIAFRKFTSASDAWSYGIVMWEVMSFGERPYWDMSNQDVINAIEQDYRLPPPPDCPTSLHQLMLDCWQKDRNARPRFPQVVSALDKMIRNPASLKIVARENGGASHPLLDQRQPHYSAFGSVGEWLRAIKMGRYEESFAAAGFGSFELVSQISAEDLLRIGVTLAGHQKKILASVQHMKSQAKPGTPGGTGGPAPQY

[20] = target: Serine/threonine-protein kinase NLK (Homo sapiens) (UniProt Q9UBE8); details: Compound concentration 1000.0 nM
Sequence of Serine/threonine-protein kinase NLK (Homo sapiens) (Q9UBE8 whole entry): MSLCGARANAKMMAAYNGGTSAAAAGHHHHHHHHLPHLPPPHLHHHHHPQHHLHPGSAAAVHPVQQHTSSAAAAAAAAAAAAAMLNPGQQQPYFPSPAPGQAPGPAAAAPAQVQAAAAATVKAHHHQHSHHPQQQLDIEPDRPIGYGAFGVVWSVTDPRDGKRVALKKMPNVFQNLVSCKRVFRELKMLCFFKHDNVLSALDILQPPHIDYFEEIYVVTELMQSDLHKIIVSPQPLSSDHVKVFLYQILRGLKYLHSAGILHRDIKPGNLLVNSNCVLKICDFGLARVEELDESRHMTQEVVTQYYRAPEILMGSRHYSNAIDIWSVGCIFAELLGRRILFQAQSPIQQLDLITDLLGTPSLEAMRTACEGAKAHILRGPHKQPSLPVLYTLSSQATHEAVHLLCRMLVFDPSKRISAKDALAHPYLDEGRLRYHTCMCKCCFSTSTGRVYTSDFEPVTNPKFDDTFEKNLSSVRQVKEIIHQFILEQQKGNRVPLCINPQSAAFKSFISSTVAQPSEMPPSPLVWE

[21] = target: Fibroblast growth factor receptor 2 (Homo sapiens) (UniProt P21802); details: Compound concentration 1000.0 nM
[22] = target: Tyrosine-protein kinase JAK1 (Homo sapiens) (UniProt P23458); details: Compound concentration 1000.0 nM
[23] = target: Serine/threonine-protein kinase NIM1 (Homo sapiens) (UniProt Q8IY84); details: Compound concentration 1000.0 nM
[24] = target: Death-associated protein kinase 2 (Homo sapiens) (UniProt Q9UIK4); details: Compound concentration 1000.0 nM
[25] = target: Cyclin-dependent kinase 8 (Homo sapiens) (UniProt P49336); details: Compound concentration 1000.0 nM
[26] = target: Death-associated protein kinase 1 (Homo sapiens) (UniProt P53355); details: Compound concentration 1000.0 nM
[27] = target: Cytoplasmic tyrosine-protein kinase BMX (Homo sapiens) (UniProt P51813); details: Compound concentration 1000.0 nM
Sequence of Cytoplasmic tyrosine-protein kinase BMX (Homo sapiens) (P51813 whole entry): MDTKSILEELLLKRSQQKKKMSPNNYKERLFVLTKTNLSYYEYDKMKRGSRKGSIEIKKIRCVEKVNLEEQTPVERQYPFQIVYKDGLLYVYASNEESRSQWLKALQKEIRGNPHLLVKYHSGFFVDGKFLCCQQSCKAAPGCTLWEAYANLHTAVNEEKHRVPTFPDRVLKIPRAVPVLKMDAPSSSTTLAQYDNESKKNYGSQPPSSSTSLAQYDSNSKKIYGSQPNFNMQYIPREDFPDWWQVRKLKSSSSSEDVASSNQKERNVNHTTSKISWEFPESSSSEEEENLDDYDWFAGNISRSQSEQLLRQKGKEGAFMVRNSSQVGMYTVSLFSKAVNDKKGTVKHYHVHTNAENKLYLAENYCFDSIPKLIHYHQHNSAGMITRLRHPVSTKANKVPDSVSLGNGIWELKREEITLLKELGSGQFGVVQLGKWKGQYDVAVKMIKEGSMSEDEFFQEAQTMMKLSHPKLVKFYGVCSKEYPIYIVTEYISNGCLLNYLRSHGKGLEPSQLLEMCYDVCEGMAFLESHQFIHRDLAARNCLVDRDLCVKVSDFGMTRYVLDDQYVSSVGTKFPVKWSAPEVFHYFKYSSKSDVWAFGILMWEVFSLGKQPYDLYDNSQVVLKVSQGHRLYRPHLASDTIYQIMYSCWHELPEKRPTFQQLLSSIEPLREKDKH

[28] = target: Serine/threonine-protein kinase PAK 2 (Homo sapiens) (UniProt Q13177); details: Compound concentration 1000.0 nM
Sequence of Serine/threonine-protein kinase PAK 2 (Homo sapiens) (Q13177 whole entry): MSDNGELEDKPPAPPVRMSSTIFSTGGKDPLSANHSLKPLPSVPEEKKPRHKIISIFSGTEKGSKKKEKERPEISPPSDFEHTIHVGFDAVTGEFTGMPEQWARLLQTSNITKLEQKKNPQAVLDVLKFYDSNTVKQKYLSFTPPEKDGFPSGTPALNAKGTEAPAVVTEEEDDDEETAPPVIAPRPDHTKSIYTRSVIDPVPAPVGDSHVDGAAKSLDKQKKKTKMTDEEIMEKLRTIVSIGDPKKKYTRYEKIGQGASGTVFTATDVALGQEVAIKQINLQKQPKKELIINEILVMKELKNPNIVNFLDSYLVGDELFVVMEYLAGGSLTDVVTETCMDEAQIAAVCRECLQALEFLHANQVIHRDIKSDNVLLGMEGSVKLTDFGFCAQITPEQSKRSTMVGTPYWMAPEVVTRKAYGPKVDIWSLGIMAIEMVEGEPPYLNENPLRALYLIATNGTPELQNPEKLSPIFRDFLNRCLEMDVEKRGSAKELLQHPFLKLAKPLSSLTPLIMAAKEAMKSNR

[29] = tested on: Leucine-rich repeat serine/threonine-protein kinase 2 (Homo sapiens), Q5S007 [G2019S]; details: Compound concentration 1000.0 nM
[30] = tested on: Epidermal growth factor receptor (Homo sapiens), P00533 [G719S]; details: Compound concentration 1000.0 nM
[31] = target: Histamine H4 receptor (Homo sapiens) (UniProt Q9H3N8); details: Compound concentration 10.0 uM
[32] = target: Bone morphogenetic protein receptor type-1B (Homo sapiens) (UniProt O00238); details: Compound concentration 1000.0 nM
[33] = target: Ribosomal protein S6 kinase alpha-3 (Homo sapiens) (UniProt P51812); details: Compound concentration 1000.0 nM
[34] = target: Receptor-type tyrosine-protein kinase FLT3 (Homo sapiens) (UniProt P36888); details: Compound concentration 1000.0 nM
[35] = tested on: Receptor-type tyrosine-protein kinase FLT3 (Homo sapiens), P36888 [K663Q]; details: Compound concentration 1000.0 nM
[36] = target: Hepatocyte growth factor receptor (Homo sapiens) (UniProt P08581); details: Compound concentration 1000.0 nM
[37] = target: 1-phosphatidylinositol 3-phosphate 5-kinase (Homo sapiens) (UniProt Q9Y2I7); details: Compound concentration 1000.0 nM
[38] = target: Ephrin type-A receptor 1 (Homo sapiens) (UniProt P21709); details: Compound concentration 1000.0 nM
Sequence of Ephrin type-A receptor 1 (Homo sapiens) (P21709 whole entry): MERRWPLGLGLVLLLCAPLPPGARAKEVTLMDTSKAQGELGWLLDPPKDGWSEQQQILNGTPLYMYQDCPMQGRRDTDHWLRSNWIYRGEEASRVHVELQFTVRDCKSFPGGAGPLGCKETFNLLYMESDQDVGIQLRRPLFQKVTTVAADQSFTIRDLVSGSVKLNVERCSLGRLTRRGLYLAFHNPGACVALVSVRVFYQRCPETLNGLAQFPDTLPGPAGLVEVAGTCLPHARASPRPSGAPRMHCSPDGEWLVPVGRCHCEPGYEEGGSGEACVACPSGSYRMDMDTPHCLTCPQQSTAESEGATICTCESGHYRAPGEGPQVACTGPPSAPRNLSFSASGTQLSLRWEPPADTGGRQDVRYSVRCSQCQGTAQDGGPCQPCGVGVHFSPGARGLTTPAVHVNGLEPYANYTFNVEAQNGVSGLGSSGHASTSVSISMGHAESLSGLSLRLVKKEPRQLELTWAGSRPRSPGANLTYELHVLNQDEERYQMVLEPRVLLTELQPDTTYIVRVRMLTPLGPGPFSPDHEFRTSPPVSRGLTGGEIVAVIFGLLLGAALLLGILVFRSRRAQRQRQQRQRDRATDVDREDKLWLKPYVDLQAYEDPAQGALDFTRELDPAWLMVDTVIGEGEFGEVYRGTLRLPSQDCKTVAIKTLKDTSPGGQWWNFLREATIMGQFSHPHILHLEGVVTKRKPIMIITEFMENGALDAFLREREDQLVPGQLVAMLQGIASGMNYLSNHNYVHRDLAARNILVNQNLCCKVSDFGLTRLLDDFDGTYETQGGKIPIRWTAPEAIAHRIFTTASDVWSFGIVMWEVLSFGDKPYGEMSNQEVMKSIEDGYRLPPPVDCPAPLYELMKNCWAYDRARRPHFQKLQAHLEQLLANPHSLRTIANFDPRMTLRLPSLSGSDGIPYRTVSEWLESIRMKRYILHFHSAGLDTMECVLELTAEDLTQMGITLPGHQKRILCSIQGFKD

[39] = target: Serine/threonine-protein kinase ICK (Homo sapiens) (UniProt Q9UPZ9); details: Compound concentration 1000.0 nM
[40] = target: Dual specificity protein kinase CLK3 (Homo sapiens) (UniProt P49761); details: Compound concentration 1000.0 nM
[41] = target: STE20/SPS1-related proline-alanine-rich protein kinase (Homo sapiens) (UniProt Q9UEW8); details: Compound concentration 1000.0 nM
[42] = target: Mitogen-activated protein kinase 1 (Homo sapiens) (UniProt P28482); details: Compound concentration 1000.0 nM
[43] = target: Phosphatidylinositol 3-kinase C2 domain-containing subunit gamma (Homo sapiens) (UniProt O75747); details: Compound concentration 1000.0 nM
[44] = tested on: Mast/stem cell growth factor receptor Kit (Homo sapiens), P10721 [V559D,T670I]; details: Compound concentration 1000.0 nM
[45] = target: Calcium/calmodulin-dependent protein kinase kinase 2 (Homo sapiens) (UniProt Q96RR4); details: Compound concentration 1000.0 nM

Nc1cnc(N2CCc3cc(S(=O)(=O)Nc4c(F)cc(Cl)cc4F)cc(N4CCCC4=O)c32)nc1
inactive: residual activity [1] 100% | residual activity [2] 100% | residual activity [3] 100% | residual activity [4] 100% | inhibition [5] 0.94% | residual activity [6] 100% | residual activity [7] 100% | residual activity [8] 100% | residual activity [9] 92% | residual activity [10] 100% | residual activity [11] 100% | residual activity [12] 86% | residual activity [13] 100% | residual activity [14] 92% | residual activity [15] 100% | residual activity [16] 100% | residual activity [17] 85% | residual activity [18] 82% | residual activity [19] 100% | residual activity [20] 100% | residual activity [21] 100% | residual activity [22] 93% | residual activity [23] 100% | residual activity [24] 91% | residual activity [25] 100% | residual activity [26] 100% | residual activity [27] 100% | residual activity [28] 78% | residual activity [29] 81% | residual activity [30] 75% | inhibition [31] -0.37% | residual activity [32] 100% | residual activity [33] 84% | residual activity [34] 91% | residual activity [35] 97% | residual activity [36] 69% | residual activity [37] 100% | residual activity [38] 99% | residual activity [39] 80% | residual activity [40] 74% | residual activity [41] 100% | residual activity [42] 100% | residual activity [43] 78% | residual activity [44] 100% | residual activity [45] 100%

Cn1nc(C(F)(F)F)cc1-c1cnc(N2CCc3cc(S(=O)(=O)Nc4c(F)cc(Cl)cc4F)cc(N4CCCC4=O)c32)nc1 [TP-020]
inactive: residual activity [1] 94% | residual activity [2] 100% | residual activity [3] 99% | residual activity [4] 100% | inhibition [5] 4.51% | residual activity [6] 80% | residual activity [7] 100% | residual activity [8] 100% | residual activity [9] 81% | residual activity [10] 100% | residual activity [11] 100% | residual activity [12] 85% | residual activity [13] 90% | residual activity [14] 95% | residual activity [15] 100% | residual activity [16] 100% | residual activity [17] 100% | residual activity [18] 100% | residual activity [19] 99% | residual activity [20] 98% | residual activity [21] 100% | residual activity [22] 96% | residual activity [23] 80% | residual activity [24] 94% | residual activity [25] 96% | residual activity [26] 96% | residual activity [27] 81% | residual activity [28] 100% | residual activity [29] 93% | residual activity [30] 100% | inhibition [31] 10.9% | residual activity [32] 83% | residual activity [33] 100% | residual activity [34] 100% | residual activity [35] 100% | residual activity [36] 100% | residual activity [37] 88% | residual activity [38] 100% | residual activity [39] 84% | residual activity [40] 88% | residual activity [41] 91% | residual activity [42] 100% | residual activity [43] 94% | residual activity [44] 88% | residual activity [45] 93%
